The nature of series [1]: dissolving times of different carrier materials. In kind it is physicochemical. The following applies: 10 g in 100 ml water of 17° C., stirred at 500 rpm, visual. The method, then:
Testing conditions: 10 g of each carrier material was added to 100 ml water of 17° C. in a 400 ml beaker and stirred at 500 rpm by a magnetic stirrer. Dissolution was determined visually.

Another series in a line: bulk density. The settings on record: for bulk density (g/100 ml): Table 1, preferred carrier materials; for Bulk density in g/100 ml: Table 3, carrier materials. In kind it is physicochemical.
Where [2] appears, read: listed as mannitol (fine granulated).

As for `OC[C@@H](O)[C@@H](O[C@H]1O[C@H](CO)[C@@H](O)[C@H](O)[C@H]1O)[C@H](O)[C@@H](O)CO` [hydrogenated maltose], the “Dissolving time” value in series [1] was determined as 200 s. In the series “bulk density”, the “bulk density (g/100 ml)” value stood at 90 g/100 ml and the “Bulk density in g/100 ml” value was determined as 90 g/100 ml.

Regarding `OC[C@H]1O[C@@](CO)(O[C@H]2O[C@H](CO)[C@@H](O)[C@H](O)[C@H]2O)[C@@H](O)[C@@H]1O` [instant sugar], the “Dissolving time” value in series [1] turned out to be 15 s. For the same molecule, in “bulk density”, the “bulk density (g/100 ml)” value was 50 g/100 ml and the “Bulk density in g/100 ml” value is on record as 45 g/100 ml.

With `OC[C@H]1O[C@@H](O[C@H]2[C@H](O)[C@@H](O)C(O)O[C@@H]2CO)[C@H](O)[C@@H](O)[C@H]1O` (stereo partly drawn) [lactose], the “Dissolving time” value in series [1] turned out to be 120 s. In the series “bulk density”, the “bulk density (g/100 ml)” value worked out at 69 g/100 ml and the “Bulk density in g/100 ml” value turned out to be 69 g/100 ml.

As to `OC[C@@H](O)[C@@H](O)[C@H](O)[C@H](O)CO` [mannitol (spray dried), mannitol], in series [1], the “Dissolving time” value was determined as 55 s. In the series “bulk density”, the “bulk density (g/100 ml)” value is 45 g/100 ml and the “Bulk density in g/100 ml” value was 45 g/100 ml.

Consider `OC[C@@H](O)[C@@H](O)[C@H](O)[C@H](O)CO` [mannitol], for which the “Dissolving time” value in series [1] (setting [2]) worked out at 95 s. Also, the “bulk density (g/100 ml)” value in the series “bulk density” stood at 63 g/100 ml. For the same molecule, in the series “bulk density” (setting [2]), the “Bulk density in g/100 ml” value is given as 62 g/100 ml.

For the molecule `O.O=P([O-])(O)O.O=P([O-])(O)O.[Ca+2]` [monocalcium phosphate.H2O], the “bulk density (g/100 ml)” value in the series “bulk density” is given as 82 g/100 ml.

For the molecule `OC[C@H]1O[C@@](CO)(O[C@H]2O[C@H](CO)[C@@H](O)[C@H](O)[C@H]2O)[C@@H](O)[C@@H]1O` [saccharose (coarse grain), saccharose], the “bulk density (g/100 ml)” value in the series “bulk density” amounted to 88 g/100 ml.

Turning to `OC[C@H]1O[C@@](CO)(O[C@H]2O[C@H](CO)[C@@H](O)[C@H](O)[C@H]2O)[C@@H](O)[C@@H]1O` [saccharose (fine grain), saccharose], the “bulk density (g/100 ml)” value in “bulk density” amounted to 81 g/100 ml.

For the molecule `OC[C@@H](O)[C@@H](O)[C@H](O)[C@@H](O)CO` [sorbitol (spray dried), sorbitol], the “Dissolving time” value in series [1] is 50 s. In the series “bulk density”, the “bulk density (g/100 ml)” value stood at 45 g/100 ml and the “Bulk density in g/100 ml” value was 45 g/100 ml.

Take `OC[C@@H](O)[C@@H](O)[C@H](O)[C@@H](O)CO` [sorbitol]: the “Dissolving time” value in series [1] is 90 s. Moreover, in “bulk density”, the “bulk density (g/100 ml)” value was 58 g/100 ml and the “Bulk density in g/100 ml” value was determined as 58 g/100 ml.

For `O.O.O=C([O-])CC(O)(CC(=O)[O-])C(=O)[O-].[Na+].[Na+].[Na+]` [trisodiumcitrate.2H2O], in series [1], the “Dissolving time” value is 85 s. Also, in “bulk density”, the “bulk density (g/100 ml)” value came out at 95 g/100 ml and the “Bulk density in g/100 ml” value was 95 g/100 ml.

Values taken from patent publication US6645529B2, “Instant granules and process for their formulation” (Dr. Gergely & Co., priority 2000, dated 2003).
